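Five concentrations, 48 hours, 96-well plates. Abbreviation: GI50, concentration required for 50% inhibition of growth. TGI: concentration producing complete growth inhibition.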
Tests used:
Assay in all cases: growth of human tumour cells (NCI), 48 h
DLD-1 colon = test system: DLD-1 colon
HCT-116 colon = test system: HCT-116 colon
KM20L2 colon = test system: KM20L2 colon
M14 melanoma = test system: M14 melanoma
MALME-3M melanoma = test system: MALME-3M melanoma
SK-MEL-28 melanoma = test system: SK-MEL-28 melanoma
A498 renal = test system: A498 renal
NCI-H23 lung = test system: NCI-H23 lung
UACC-257 melanoma = test system: UACC-257 melanoma
MDA-MB-231 breast = test system: MDA-MB-231 breast

Structure (SMILES) | GI50 (DLD-1 colon) [µM] | TGI (DLD-1 colon) [µM] | GI50 (HCT-116 colon) [µM] | TGI (HCT-116 colon) [µM] | GI50 (KM20L2 colon) [µM] | TGI (KM20L2 colon) [µM] | GI50 (M14 melanoma) [µM] | TGI (M14 melanoma) [µM] | GI50 (MALME-3M melanoma) [µM] | TGI (MALME-3M melanoma) [µM] | TGI (SK-MEL-28 melanoma) [µM] | TGI (A498 renal) [µM] | TGI (NCI-H23 lung) [µM] | TGI (UACC-257 melanoma) [µM] | GI50 (NCI-H23 lung) [µM] | GI50 (SK-MEL-28 melanoma) [µM] | GI50 (UACC-257 melanoma) [µM] | GI50 (MDA-MB-231 breast) [µM] | TGI (MDA-MB-231 breast) [µM] | GI50 (A498 renal) [µM]
COc1ccc2c([nH]c3cc(O)c(C)cc32)c1CC=C(C)C | 9.22 | > 25 | 11.9 | > 25 | 16.3 | > 25 | 1.62 | 9.29 | 17.3 | > 25 | > 25 | – | – | – | – | – | – | – | – | –
N#CC(C(=O)C(=O)Nc1ccc(Cl)c(Cl)c1)c1ccc(Cl)cc1 (stereo not given) | – | > 100 | – | 49.8 | – | > 100 | – | > 100 | – | > 100 | > 100 | > 100 | > 100 | > 100 | – | – | – | – | – | –
CCOC(=O)/C(=C/c1ccc(Cl)cc1)N(CC)CC | – | > 100 | – | > 100 | – | – | – | > 100 | – | > 100 | > 100 | > 100 | > 100 | > 100 | – | – | – | – | – | –
O=c1nc(-c2ccccc2)scc1-c1ccccc1 | – | > 100 | – | > 100 | – | > 100 | – | > 100 | – | > 100 | > 100 | – | > 100 | > 100 | – | – | – | – | – | –
CC1=C2[C@@H](c3ccccc3)C3C=CC2(c2ccccc23)N(C(=O)Nc2cccc3ccccc23)C1=O (stereo not given in full) | – | – | – | > 100 | – | > 100 | – | > 100 | – | > 100 | > 100 | > 100 | > 100 | > 100 | – | – | – | – | – | –
Cc1ccc(C(O)/C(=N/N)c2nc3ccc([N+](=O)[O-])cc3[nH]c2=O)cc1 (stereo not given) | – | > 100 | – | > 100 | – | > 100 | – | > 100 | – | > 100 | > 100 | – | > 100 | > 100 | – | – | – | – | – | –
C[CH2][Sn]([Cl])([CH2]C)[CH2]C | 0.973 | 15.8 | 1.33 | 10.4 | 0.524 | 2.99 | 1.27 | 5.46 | 0.572 | 3.77 | 11.6 | – | 4.84 | 4.43 | 0.556 | 1.67 | 1 | – | – | –
C[C@]12CC/C(=N\OC(=O)Nc3ccccc3)C=C1CC[C@@H]1C2CC[C@@]2(C)C1CC[C@@H]2OC(=O)Nc1ccccc1 (stereo not given in full) | – | – | – | > 100 | – | > 100 | – | > 100 | – | – | – | > 100 | > 100 | – | – | – | – | – | – | –
COc1cccc(N2C(=O)[C@H]3[C@H]4CC(C(C)(C)C)CC[C@H]4c4c([nH]c5ccccc45)[C@H]3C2=O)c1 (stereo not given in full) | – | 65.1 | – | – | – | – | – | 30.7 | – | 47.4 | 35.6 | – | 40.9 | 48.6 | – | – | – | – | – | –
C/C=C/C=C\C(=O)C1c2cccc(O)c2C(=O)c2c(O)cc(C)cc21 (stereo not given) | – | 3.67 | – | 2.92 | – | 3.94 | – | – | – | 3.12 | 3.51 | 7.76 | 3.65 | 3.46 | – | – | – | – | – | –
CO[C@]12CCC(=O)N1C=Cc1c2[nH]c2ccccc12 | – | > 100 | – | > 100 | – | – | – | > 100 | – | > 100 | > 100 | > 100 | > 100 | > 100 | – | – | – | – | – | –
COC(=O)C1=C(C)N(NC(=O)c2cccc(Cl)c2)C(C)(O)C12CCOC2=O (stereo not given) | – | – | – | > 100 | – | > 100 | – | > 100 | – | > 100 | > 100 | > 100 | – | > 100 | – | – | – | – | – | –
CCOC1=C2C(C)(CCC3[C@@]4(C)C=CC(=O)C(C)(C)C4CC(O)[C@@]23C)C(c2ccoc2)C1=O (stereo not given in full) | – | 29.7 | – | 23.7 | – | 32 | – | > 100 | – | – | 30.5 | 33.9 | 34.8 | 99.3 | – | – | – | – | – | –
CC(C)NCCCCCNc1cc(O)cc2cccnc12 | – | – | 67.9 | > 100 | – | – | > 100 | > 100 | – | > 100 | > 100 | > 100 | > 100 | > 75.1 | > 24.6 | > 100 | 17.7 | 4.78 | > 100 | –
Cc1ccc2nc(CC(=O)c3ccc4ccccc4c3)c(=O)[nH]c2c1 | – | – | – | > 100 | – | – | – | > 100 | – | > 100 | > 100 | > 100 | > 100 | > 100 | – | – | – | – | > 100 | –
O=C(Nc1ccc(Cl)cc1F)c1cc(Cl)ccc1O | – | – | 0.431 | 2.24 | – | – | 0.437 | 2.78 | 0.256 | 1.17 | 1.84 | 0.924 | 1.91 | 6.89 | 0.294 | 0.364 | 0.482 | 0.554 | 3.46 | 0.26
O=C(NCCCCCCNC(=O)NC1OCC(O)C(O)C1O)NC1OCC(O)C(O)C1O (stereo not given) | – | > 100 | – | > 100 | – | – | – | > 100 | – | > 100 | > 100 | – | > 100 | – | – | – | – | – | – | –
NCC(=O)NC(CO)C(=O)O (stereo not given) | – | – | – | > 100 | – | – | – | > 100 | – | > 100 | > 100 | > 100 | > 100 | > 100 | – | – | – | – | > 100 | –
COc1cc(/C=N/Nc2ncnc3c2cnn3Cc2ccccc2)ccc1O | – | – | 14 | > 25 | – | – | > 25 | > 25 | 7.14 | > 25 | > 25 | > 25 | > 25 | > 25 | 11.9 | > 19.6 | > 16.7 | 3.43 | > 25 | > 18.3
O=C(Nc1ccc(O)c(NS(=O)(=O)c2ccc(F)cc2)c1)c1ccc(-c2ccccc2)cc1 | – | – | 5.12 | 20.7 | – | – | 7.32 | 21.6 | 11.5 | 23.9 | 23.5 | 26.7 | 24.3 | 46.6 | 10.5 | 9.06 | 5.71 | 6.15 | 20.4 | 13.4
Cc1[nH]c2ccccc2c1C1=CC(=O)C=CC1=O | – | – | 10.5 | 24.8 | – | – | 13.6 | 27.7 | 7.45 | 27.8 | 27.4 | 40 | 31.5 | 28.6 | 13 | 14.1 | 14.3 | 12.9 | 29.2 | 14.5

Reference: PubChem BioAssay (NCI)
